According to patent US8962681B2, “Use of aminoacetonitrile derivatives against endoparasites” (Zoetis LLC, priority 2011, dated 2015):
Like-named read-outs stand apart in the source and are kept apart here.

How the values were obtained:
[1] = test system: L4 stage larvae of D. immitis; assay: L4 stage larvae motility/kill assay; assay type: cell-based, Dirofilaria immitis
[2] = test system: Dirofilaria immitis microfilariae; assay: in vitro microwell motility assay against heartworm microfilariae; assay type: cell-based; conditions: microfilaria from canine blood, 384 well plate, 72 hours incubation at 37° C. and 5% CO2, LemnaTec Scanalyzer
[3] = screened at 10 μM in duplicate, 96-well plate, motility observed at 4, 24, 48 and 72 hours, endpoint defined as ED80 (80% of larvae killed)

Compound	active against L4 D. immitis at 10 μM [1, 3]	ED50 (dose at which the overall microfilaria motility was reduced by 50% compared to that of an untreated control) [2]	active against L4 D. immitis at 10 μM [1]
CC(C#N)(COc1ccc(F)cc1Cl)NC(=O)c1ccc(S(F)(F)(F)(F)F)cc1 (centres unmarked) [test compound 18, N-[2-(2-chloro-4-fluorophenoxy)-1-cyano-1-methylethyl]-4-(pentafluorothio)-benzamide]	active	33 µM	
Cc1ccc(C#N)cc1OCC(C)(C#N)NC(=O)c1ccc(S(F)(F)(F)(F)F)cc1 (centres unmarked) [test compound 43, N-[1-cyano-2-(5-cyano-2-methylphenoxy)-1-methylethyl]-4-(pentafluorothio)benzamide]	active	10 µM	
CC(C#N)(COc1ccccc1Cl)NC(=O)c1ccc(S(F)(F)(F)(F)F)cc1 (centres unmarked) [test compound 16, N-[2-(2-chlorophenoxy)-1-cyano-1-methylethyl]-4-(pentafluorothio)benzamide]	active	33 µM	
CC(C#N)(COc1ccccc1C(F)(F)F)NC(=O)c1ccc(S(F)(F)(F)(F)F)cc1 (centres unmarked) [test compound 14, N-{1-cyano-1-methyl-2-[2-(trifluoromethyl)phenoxy]ethyl}-4-(pentafluorothio)-benzamide]	active	10 µM	
CC(C#N)(COc1ccc(-c2ccncc2)cc1C(F)(F)F)NC(=O)c1ccc(S(F)(F)(F)(F)F)cc1 (centres unmarked) [test compound 81, N-{1-cyano-1-methyl-2-[4-pyridin-4-yl-2-(trifluoromethyl)phenoxy]ethyl}-4-(pentafluorothio)benzamide]	active	3.3 µM	
CC(C#N)(COc1ccc(Cl)cc1)NC(=O)c1ccc(S(F)(F)(F)(F)F)cc1 (centres unmarked) [test compound 10, N-[2-(4-chlorophenoxy)-1-cyano-1-methylethyl]-4-(pentafluorothio)benzamide]	active		
milbemycin oxime [reference compound]	active		
CC(C#N)(COc1cc(C#N)ccc1C(F)(F)F)NC(=O)c1ccc(S(F)(F)(F)(F)F)cc1 (centres unmarked) [test compound 1, N-{1-cyano-2-[5-cyano-2-(trifluoromethyl)phenoxy]-1-methylethyl}-4-(pentafluorothio)benzamide]	active	10 µM	
CC(C#N)(COc1ccc(Cl)cc1C#N)NC(=O)c1ccc(S(F)(F)(F)(F)F)cc1 (centres unmarked) [test compound 11, N-[2-(4-chloro-2-cyanophenoxy)-1-cyano-1-methylethyl]-4-(pentafluorothio)-benzamide]	active		
CC(C#N)(COc1ccc(C#N)cc1C(F)(F)F)NC(=O)c1ccc(S(F)(F)(F)(F)F)cc1 (centres unmarked) [test compound 7, N-{1-cyano-2-[4-cyano-2-(trifluoromethyl)phenoxy]-1-methylethyl}-4-(pentafluorothio)benzamide]	active		
ivermectin [reference compound]			active
CO[C@H]1C[C@H](O[C@@H]2/C(C)=C/C[C@@H]3C[C@@H](C[C@]4(CC[C@H](C)[C@@H](C5CCCCC5)O4)O3)OC(=O)[C@@H]3C=C(C)/C(=N/O)[C@H]4OC/C(=C\C=C\[C@@H]2C)[C@]43O)O[C@@H](C)[C@@H]1O [Selamectin, reference compound]			active
COc1ccc(OCC(C)(C#N)NC(=O)c2ccc(S(F)(F)(F)(F)F)cc2)c(C(F)(F)F)c1 (centres unmarked) [test compound 42, N-{1-cyano-2-[4-methoxy-2-(trifluoromethyl)phenoxy]-1-methylethyl}-4-(pentafluorothio)benzamide]	active	33 µM	
CO/N=C1\C[C@]2(C[C@@H]3C[C@@H](C/C=C(\C)C[C@@H](C)/C=C/C=C4\CO[C@@H]5[C@H](O)C(C)=C[C@@H](C(=O)O3)[C@]45O)O2)O[C@H](/C(C)=C/C(C)C)[C@H]1C [moxidectin, reference compound]	active		
CC(C#N)(COc1ccc(I)cc1)NC(=O)c1ccc(S(F)(F)(F)(F)F)cc1 (centres unmarked) [test compound 13, N-[1-cyano-2-(4-iodophenoxy)-1-methylethyl]-4-(pentafluorothio)benzamide]	active		
CC(C#N)(COc1cc(C#N)ccc1Oc1ccccc1)NC(=O)c1ccc(S(F)(F)(F)(F)F)cc1 (centres unmarked) [test compound 60, N-[1-cyano-2-(5-cyano-2-phenoxyphenoxy)-1-methylethyl]-4-(pentafluorothio)benzamide]	active	3.3 µM	

Compound	active against L4 D. immitis at 10 μM [1, 3]	ED50 (dose at which the overall microfilaria motility was reduced by 50% compared to that of an untreated control) [2]	active against L4 D. immitis at 10 μM [1]
COc1ccc(Oc2ccc(C#N)cc2OCC(C)(C#N)NC(=O)c2ccc(S(F)(F)(F)(F)F)cc2)c(F)c1F (centres unmarked) [test compound 76, N-{1-cyano-2-[5-cyano-2-(2,3-difluoro-4-methoxyphenoxy)phenoxy]-1-methylethyl}-4-(pentafluorothio)benzamide]		10 µM	
CC(C#N)(COc1cccc(Cl)c1C#N)NC(=O)c1ccc(S(F)(F)(F)(F)F)cc1 (centres unmarked) [test compound 17, N-[2-(3-chloro-2-cyanophenoxy)-1-cyano-1-methylethyl]-4-(pentafluorothio)-benzamide]		10 µM	
COc1ccccc1Oc1ccc(C#N)cc1OCC(C)(C#N)NC(=O)c1ccc(S(F)(F)(F)(F)F)cc1 (centres unmarked) [test compound 69, N-{1-cyano-2-[5-cyano-2-(2-methoxyphenoxy)phenoxy]-1-methylethyl}-4-(pentafluorothio)benzamide]	active		
CC(C#N)(NC(=O)c1ccc(S(F)(F)(F)(F)F)cc1)C1Cc2cc(C#N)cc(Cl)c2O1 (centres unmarked) [test compound 80, N-[1-(7-chloro-5-cyano-2,3-dihydro-1-benzofuran-2-yl)-1-cyanoethyl]-4-(pentafluorothio)benzamide]	active	3.3 µM	
CC(C#N)(COc1ccc(Cl)cc1Cl)NC(=O)c1ccc(S(F)(F)(F)(F)F)cc1 (centres unmarked) [test compound 8, N-[1-cyano-2-(2,4-dichlorophenoxy)-1-methylethyl]-4-(pentafluorothio)benzamide]	active		
CC(C#N)(COc1cc(C#N)ccc1C(F)(F)F)NC(=O)c1ccc(S(F)(F)(F)(F)F)cc1 (centres unmarked) [test compound 3, N-{1-cyano-2-[5-cyano-2-(trifluoromethyl)phenoxy]-1-methylethyl}-4-(pentafluorothio)benzamide]		10 µM	
CSc1ccc(COCC(C)(C#N)NC(=O)c2ccc(S(F)(F)(F)(F)F)cc2)cc1 (centres unmarked) [test compound 53, N-(1-cyano-1-methyl-2-{[4-(methylthio)benzyl]oxy}ethyl)-4-(pentafluorothio)benzamide]		10 µM	
CC(C#N)(COc1ccc(C#N)cc1OC(F)(F)F)NC(=O)c1ccc(S(F)(F)(F)(F)F)cc1 (centres unmarked) [test compound 56, N-{1-cyano-2-[4-cyano-2-(trifluoromethoxy)phenoxy]-1-methylethyl}-4-(pentafluorothio)benzamide]		3.3 µM	
COc1ccc(Oc2ccc(C#N)cc2OCC(C)(C#N)NC(=O)c2ccc(S(F)(F)(F)(F)F)cc2)cc1 (centres unmarked) [test compound 66, N-{1-cyano-2-[5-cyano-2-(4-methoxyphenoxy)phenoxy]-1-methylethyl}-4-(pentafluorothio)benzamide]		3.3 µM	
CC(C#N)(COc1cc(Br)cc(C#N)c1)NC(=O)c1ccc(S(F)(F)(F)(F)F)cc1 (centres unmarked) [test compound 33, N-[2-(3-bromo-5-cyanophenoxy)-1-cyano-1-methylethyl]-4-(pentafluorothio)-benzamide]		33 µM	
CC(C#N)(COc1ccc(C#N)cc1Br)NC(=O)c1ccc(S(F)(F)(F)(F)F)cc1 (centres unmarked) [test compound 29, N-[2-(2-bromo-4-cyanophenoxy)-1-cyano-1-methylethyl]-4-(pentafluorothio)-benzamide]	active		
C[C@](C#N)(COc1ccc(C#N)cc1C(F)(F)F)NC(=O)c1ccc(S(F)(F)(F)(F)F)cc1 [test compound 51a]	active	10 µM	
CC(C#N)(COc1ccc(Br)cc1F)NC(=O)c1ccc(S(F)(F)(F)(F)F)cc1 (centres unmarked) [test compound 32, N-[2-(4-bromo-2-fluorophenoxy)-1-cyano-1-methylethyl]-4-(pentafluorothio)-benzamide]		33 µM	
COc1c(F)cc(Oc2ccc(C#N)cc2OCC(C)(C#N)NC(=O)c2ccc(S(F)(F)(F)(F)F)cc2)cc1F (centres unmarked) [test compound 78, N-{1-cyano-2-[5-cyano-2-(3,5-difluoro-4-methoxyphenoxy)phenoxy]-1-methylethyl}-4-(pentafluorothio)benzamide]		1 µM	
CC(C#N)(COc1cc(C#N)cc(C(F)(F)F)c1)NC(=O)c1ccc(S(F)(F)(F)(F)F)cc1 (centres unmarked) [test compound 5, N-{1-cyano-2-[3-cyano-5-(trifluoromethyl)phenoxy]-1-methylethyl}-4-(pentafluorothio)benzamide]		3.3 µM	
